These results are taken from patent US6395727B1, “Method of treating Bulimia Nervosa and related eating disorders by administration of atypical antipsychotic medications” (The Cincinnati Children's Hospital Research Foundation, priority 1999, dated 2002).

The conditions of data set [1]: cited from earlier work.
The conditions of data set [2]: some mammals; cited from earlier work.
For data set [3], the system named is Bulimia Nervosa. Kind of data set: therapeutic trial of an antidepressant (fluoxetine) before the risperidone trial, same patient. The data set is classed as in vivo, human. The note with it: fluoxetine 20 mg PO qam, approximately 4 months.
Data set [4] has as its system Bulimia Nervosa.
The mark [5] stands for this setting: week four, risperidone 1.5 mg PO at bedtime, fluoxetine 20 mg PO QAM continued.

Read-outs that look alike come from different tables or passages of the source.

In the case of `Cc1cc2c(s1)Nc1ccccc1N=C2N1CCN(C)CC1` [Olanzapine, olanzapine], the weight gain result in data set [1] (in some cases) was “up to 1 pound per week”.
As for `OCCOCCN1CCN(C2=Nc3ccccc3Sc3ccccc32)CC1` [Quetiapine, quetiapine], the cataract formation result in data set [2] is “cause cataract formation”.
For `CNCCC(Oc1ccc(C(F)(F)F)cc1)c1ccccc1` (stereo not drawn) [fluoxetine], in the data set on Bulimia Nervosa [3], the bingeing and purging result is “has not subsided”; the “depressive symptoms (Zung Depression Scores and self-report)” value was “remission of depressive symptoms”.
For `Cc1nc2n(c(=O)c1CCN1CCC(c3noc4cc(F)ccc34)CC1)CCCC2` [risperidone, 3-[2-[4-(6-fluoro-1,2-benzisoxazol-3-yl)-1-piperidinyl]ethyl]-6,7,8,9-tetrahydro-2-methyl-4H-pyrido[1,2-a]pyrimidin-4-one], in the data set with Bulimia Nervosa [4] (after two weeks, risperidone 0.5 mg PO twice per day, fluoxetine 20 mg PO QAM continued), the cessation of symptoms entry is listed as “has not had any cessation of symptoms”. In addition, in the data set on Bulimia Nervosa [4] (conclusion of 8-week study, risperidone 1.5 mg PO QHS plus fluoxetine), the “improvement in bulimic symptomatology (journal entries)” value was determined as 50%. Besides, in the data set on Bulimia Nervosa [4] (conclusion of 8-week study, risperidone 1.5 mg PO QHS plus fluoxetine, self-rating scale), the “body image scores improved” value turned out to be 50%. In the data set on Bulimia Nervosa [4] (conclusion of 8-week study, risperidone 1.5 mg PO QHS plus fluoxetine, self-rating scales), the “differences in baseline and final scores of the anxiety and depression scales” value was “no appreciable differences”. Further, in the data set on Bulimia Nervosa [4] (setting [5]), the “reduction in bulimic symptomatology (patient's journal)” value came out at 30% and the “side effects to the medications” value was “no side effects”. In data set [1] (in vivo), the weight gain entry is on record as “minimal” and the “white blood cell count” value was “remains unaffected”.
